Reference: patent US9605078B2, “Pictet-Spengler ligation for protein chemical modification” (THE REGENTS OF THE UNIVERSITY OF CALIFORNIA, priority 2012, dated 2017)

Experiment: Small molecule hydrolysis of model oxime and oxacarboline, followed by liquid chromatography
Assay type: physicochemical
Conditions: 1 μM, buffered solutions at pH 4.5 or 5.0, room temperature, over two days
Method: Small molecule hydrolysis: Hydrolysis solutions contained 1 μM 5a or 5b, 25 μM phenylalanine as an internal standard, and 5 mM sodium acetate at the appropriate pH. The solutions were incubated at room temperature and 50 μL aliquots were repeatedly analyzed by liquid chromatography on an Agilent 1200 instrument using an Agilent Poroshell 120 EC-C18 reverse phase column (4.6×50 mm) with a solvent flow rate of 0.4 mL/min. The following gradient was employed (time (min), % MeCN in H2O with 0.1% TFA): 0, 5; 10, 95; 12, 95; 14, 5; 19, 5. The time of the first injection for each solution was assigned as t=0. Integrals of the absorption peaks for 5a and 5b at 440 nm were normalized against the phenylalanine peak for each injection.

hydrolysis of conjugate (liquid chromatography) | conjugate remained intact (liquid chromatography) | SMILES
majority of oxime 5a hydrolyzed |  | O=C(NCCC=NOCc1ccccc1)c1ccc(-c2c3ccc(=O)cc-3oc3cc(O)ccc23)c(C(=O)O)c1 (racemic) [Compound 5a, 5-((3-((Benzyloxy)imino)propyl)carbamoyl)-2-(6-hydroxy-3-oxo-3H-xanthen-9-yl)benzoic acid]
 | over 90% | CN1OCc2c(c3ccccc3n2CCC(=O)O)C1CCNC(=O)c1ccc(-c2c3ccc(=O)cc-3oc3cc(O)ccc23)c(C(=O)O)c1 (centres unmarked) [Compound 5b, 5-((2-(5-(2-Carboxyethyl)-2-methyl-1,2,4,5-tetrahydro-[1,2]oxazino [5,4-b]indol-1-yl)ethyl)carbamoyl)-2-(6-hydroxy-3-oxo-3H-xanthen-9-yl)benzoic acid]
